According to patent US12162896B2, “Salts and polymorphs of certain MCL-1 inhibitors” (Gilead Sciences, Inc., priority 2022, dated 2024):
Structures can show the parent of a compound that is named as a salt.

Experiments:
MCL-1 = MCL-1 (Homo sapiens, UniProt Q07820); settings: stated in background, WO 2019/222112; cited from earlier work
[1] = Hygroscopicity by dynamic vapor sorption (DVS); type: physicochemical; settings: for hygroscopicity (DVS analysis, in words): 0% to 90% RH, about 25° C.; for water (moisture) absorbed by DVS: between 0% and 90% RH at about 25° C.
Procedure: (§1) Hygroscopicity was studied using dynamic vapor sorption (DVS, TA Q5000 SA, TA Instruments, New Castle, DE or DVS, DVS Intrinsic, Surface Measurement Systems, London, UK). A sample (2-20 mg) was placed in an aluminum DVS pan and loaded on the sample side of the twin pan balance. The water sorption and desorption were studied as a function of relative humidity (RH) at 25° C. In 10% RH increments, the relative humidity was increased from 40% RH to 90% RH and then decreased back to 0%, followed by repeating the full cycle from 0% RH up to 90% RH and back to 0% RH. […] Data analysis was performed using Universal Analysis 2000 Version 4.5A (TA Instruments, New Castle, DE) for TA DVS runs and Microsoft Excel for SMS DVS runs.

[2] = XRPD analysis of the sample post DVS (form change); type: physicochemical; settings: sample after DVS cycles at 25° C.
Procedure: X-ray powder diffraction (XRPD) analysis was conducted on a diffractometer (PANalytical XPERT-PRO, PANalytical B. V., Almelo, Netherlands) using copper radiation (Cu Kα, λ=1.541874). Samples were spread evenly on a zero-background sample plate. The generator was operated at a voltage of 45 kV and amperage of 40 mA. Slits were Soller 0.02 rad, antiscatter 1.0°, and divergence. Scans were performed from 2 to 40° 2−θ with a 0.0167 step size. Data analysis was performed using X'Pert Data Viewer V1.2d (PANalytical B.V., Almelo, Netherlands).
as §1

[3] = Competitive slurries of polymorph forms in EtOH; type: physicochemical; settings: for outcome of competitive slurry with Form I: in EtOH

Sequence of MCL-1 (Q07820 whole entry, species assumed): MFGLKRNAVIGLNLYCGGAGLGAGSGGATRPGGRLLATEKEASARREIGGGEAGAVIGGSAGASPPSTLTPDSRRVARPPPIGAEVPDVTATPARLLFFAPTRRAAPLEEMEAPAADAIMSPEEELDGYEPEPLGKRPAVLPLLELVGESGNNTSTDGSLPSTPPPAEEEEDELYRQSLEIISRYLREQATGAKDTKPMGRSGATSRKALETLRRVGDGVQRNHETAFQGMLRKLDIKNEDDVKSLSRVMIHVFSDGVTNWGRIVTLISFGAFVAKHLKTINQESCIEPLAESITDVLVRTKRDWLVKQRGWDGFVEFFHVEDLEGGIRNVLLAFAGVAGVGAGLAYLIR

Compound | MCL-1 inhibition (in words) (MCL-1) | hygroscopicity (DVS analysis, in words) [1] | water (moisture) absorbed by DVS [1] | form change by XRPD post DVS [2] | outcome of competitive slurry with Form I [3] | relative stability versus other unsolvated/desolvated forms ([3]; competitive slurries in EtOH) | moisture rapidly absorbed at ambient conditions ([1]; ambient conditions)
COc1nn(C)cc1C(=O)N[S@@]1(=O)=NC(=O)c2ccc3c(c2)N(C[C@@H]2CC[C@H]2[C@@H](OC)/C=C/C[C@H](C)C1)C[C@@]1(CCCc2cc(Cl)ccc21)CO3 [Compound 1] | effective MCL-1 inhibitor |  |  |  |  |  | 
COc1nn(C)cc1C(=O)N[S@@]1(=O)=NC(=O)c2ccc3c(c2)N(C[C@@H]2CC[C@H]2[C@@H](OC)/C=C/C[C@H](C)C1)C[C@@]1(CCCc2cc(Cl)ccc21)CO3 [DEA Salt Form 1] |  | moderately hygroscopic | about 5.5 wt % | no form change |  |  | 
COc1nn(C)cc1C(=O)N[S@@]1(=O)=NC(=O)c2ccc3c(c2)N(C[C@@H]2CC[C@H]2[C@@H](OC)/C=C/C[C@H](C)C1)C[C@@]1(CCCc2cc(Cl)ccc21)CO3 [Form III] |  | moderately hygroscopic | up to 5 wt % | no form change | full conversion to Form I |  | 
COc1nn(C)cc1C(=O)N[S@@]1(=O)=NC(=O)c2ccc3c(c2)N(C[C@@H]2CC[C@H]2[C@@H](OC)/C=C/C[C@H](C)C1)C[C@@]1(CCCc2cc(Cl)ccc21)CO3 [Form II] |  | slightly hygroscopic | up to 1.1 wt % | no form change | full conversion to Form I |  | 
COc1nn(C)cc1C(=O)N[S@@]1(=O)=NC(=O)c2ccc3c(c2)N(C[C@@H]2CC[C@H]2[C@@H](OC)/C=C/C[C@H](C)C1)C[C@@]1(CCCc2cc(Cl)ccc21)CO3 [Form IV] |  |  |  |  | full conversion to Form I |  | 
COc1nn(C)cc1C(=O)N[S@@]1(=O)=NC(=O)c2ccc3c(c2)N(C[C@@H]2CC[C@H]2[C@@H](OC)/C=C/C[C@H](C)C1)C[C@@]1(CCCc2cc(Cl)ccc21)CO3 [Form I] |  | slightly hygroscopic | about 1.4 wt % | no form change |  | higher stability | 
COc1nn(C)cc1C(=O)N[S@@]1(=O)=NC(=O)c2ccc3c(c2)N(C[C@@H]2CC[C@H]2[C@@H](OC)/C=C/C[C@H](C)C1)C[C@@]1(CCCc2cc(Cl)ccc21)CO3 [K Salt Form 1] |  | moderately hygroscopic | about 11 wt % | no form change |  |  | 4-6 wt %
COc1nn(C)cc1C(=O)N[S@@]1(=O)=NC(=O)c2ccc3c(c2)N(C[C@@H]2CC[C@H]2[C@@H](OC)/C=C/C[C@H](C)C1)C[C@@]1(CCCc2cc(Cl)ccc21)CO3 [Na salt Form 1] |  | moderately hygroscopic | about 7.5 wt % | no form change |  |  | 
